Tests used:
[1] = molecular target: T1, EGFR mutant Del19 (E746-A750) (Homo sapiens, UniProt P00533, DEL746-750); experiment: Kinase inhibition assay, EGFR del E746-A750; assay type: biochemical; conditions: read-out: EGFR mutants Del19 (E746-A750);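 also: truncated human EGFR mutant kinase, two-hour preincubation with compound, then one-hour reaction with ATP and ULight-PolyGT peptide, LANCE Europium-antibody phosphorylation readout, IC50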
T1 construct: truncated human JAK3, EGFR mutants such as del E746-A750; purchased Carna Biosciences

[2] = molecular target: T2, EGFR mutant T790M (Homo sapiens, UniProt P00533, T790M); experiment: Kinase inhibition assay, EGFR mutant T790M; conditions: biochemical potency;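 also: truncated human EGFR mutant enzyme preincubated two hours with compound, then ATP plus ULight-PolyGT peptide for one hour, Europium-labeled antibody LANCE detection, IC50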
T2 construct: truncated human JAK3, EGFR mutants such as del E746-A750; purchased Carna Biosciences

[3] = molecular target: T3, EGFR mutant L858R (Homo sapiens, UniProt P00533, L858R); experiment: Kinase inhibition assay, EGFR L858R; assay type: biochemical; conditions: read-out: EGFR mutants L858R;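 also: truncated human EGFR L858R kinase with compound preincubation, ULight-PolyGT peptide phosphorylation read by Europium-antibody Lance detection, IC50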
T3 construct: truncated human JAK3, EGFR mutants such as del E746-A750; purchased Carna Biosciences

[4] = molecular target: T4, EGFR mutant Del19/T790M (Homo sapiens, UniProt P00533, DEL746-750/T790M); experiment: Kinase inhibition assay, EGFR del E746-A750/T790M; assay type: biochemical; conditions: read-out: EGFR mutants Del19/T790M
T4 construct: truncated human JAK3, EGFR mutants such as del E746-A750; purchased Carna Biosciences

[5] = molecular target: T5, SYK (Homo sapiens, UniProt P43405); experiment: Kinase inhibition assay, SYK; assay type: biochemical; conditions: biochemical potency;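 also: purified full-length human SYK pre-incubated 30 min with compound, then ULight-TK peptide phosphorylation for 1 h, detected with Europium-labeled antibody in Lance buffer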
T5 construct: Purified human, full-length SYK, KDR; purchased Carna Biosciences

[6] = molecular target: T6, EGFR mutant L858R/T790M (Homo sapiens, UniProt P00533, L858R/T790M); experiment: Kinase inhibition assay, EGFR L858R/T790M; assay type: biochemical; conditions: read-out: EGFR mutants L858R/T790M;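 also: truncated human enzyme preincubated two hours with compound, then one hour with one millimolar ATP and ULight-PolyGT peptide, Europium-labeled antibody detection, IC50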
T6 construct: truncated human JAK3, EGFR mutants such as del E746-A750; purchased Carna Biosciences
T6 sequence (P00533 669-1210 T790M/L858R limits assumed): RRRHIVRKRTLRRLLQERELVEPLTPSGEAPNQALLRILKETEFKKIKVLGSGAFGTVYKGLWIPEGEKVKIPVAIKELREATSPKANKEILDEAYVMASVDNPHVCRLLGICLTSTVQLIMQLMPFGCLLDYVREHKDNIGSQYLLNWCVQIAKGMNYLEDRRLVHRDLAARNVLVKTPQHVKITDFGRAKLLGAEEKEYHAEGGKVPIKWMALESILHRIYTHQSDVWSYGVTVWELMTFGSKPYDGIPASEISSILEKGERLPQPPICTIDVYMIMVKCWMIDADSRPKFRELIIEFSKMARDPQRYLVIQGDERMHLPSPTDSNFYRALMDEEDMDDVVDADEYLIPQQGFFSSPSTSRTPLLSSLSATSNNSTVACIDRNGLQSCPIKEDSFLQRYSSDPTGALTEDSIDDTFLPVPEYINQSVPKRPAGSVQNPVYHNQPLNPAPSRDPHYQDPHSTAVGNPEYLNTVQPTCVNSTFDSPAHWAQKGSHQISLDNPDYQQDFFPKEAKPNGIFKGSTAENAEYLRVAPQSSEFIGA

T2 sequence (P00533 669-1210 T790M limits assumed): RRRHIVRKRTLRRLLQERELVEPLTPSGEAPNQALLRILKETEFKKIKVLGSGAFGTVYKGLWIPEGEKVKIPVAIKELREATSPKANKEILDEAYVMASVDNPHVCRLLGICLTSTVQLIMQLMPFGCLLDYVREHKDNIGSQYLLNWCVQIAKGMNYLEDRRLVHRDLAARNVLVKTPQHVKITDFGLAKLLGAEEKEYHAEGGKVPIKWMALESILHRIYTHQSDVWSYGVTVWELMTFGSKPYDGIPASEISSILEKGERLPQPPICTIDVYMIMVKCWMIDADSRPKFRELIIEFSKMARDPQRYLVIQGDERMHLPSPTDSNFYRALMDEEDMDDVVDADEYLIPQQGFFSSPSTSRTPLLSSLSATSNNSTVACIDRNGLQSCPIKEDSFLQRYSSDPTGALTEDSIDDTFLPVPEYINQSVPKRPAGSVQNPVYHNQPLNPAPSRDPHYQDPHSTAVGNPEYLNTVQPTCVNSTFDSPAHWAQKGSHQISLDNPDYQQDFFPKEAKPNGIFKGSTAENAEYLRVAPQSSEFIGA
T1 sequence (P00533 with tags, fused parts or gaps DEL746-750 limits assumed): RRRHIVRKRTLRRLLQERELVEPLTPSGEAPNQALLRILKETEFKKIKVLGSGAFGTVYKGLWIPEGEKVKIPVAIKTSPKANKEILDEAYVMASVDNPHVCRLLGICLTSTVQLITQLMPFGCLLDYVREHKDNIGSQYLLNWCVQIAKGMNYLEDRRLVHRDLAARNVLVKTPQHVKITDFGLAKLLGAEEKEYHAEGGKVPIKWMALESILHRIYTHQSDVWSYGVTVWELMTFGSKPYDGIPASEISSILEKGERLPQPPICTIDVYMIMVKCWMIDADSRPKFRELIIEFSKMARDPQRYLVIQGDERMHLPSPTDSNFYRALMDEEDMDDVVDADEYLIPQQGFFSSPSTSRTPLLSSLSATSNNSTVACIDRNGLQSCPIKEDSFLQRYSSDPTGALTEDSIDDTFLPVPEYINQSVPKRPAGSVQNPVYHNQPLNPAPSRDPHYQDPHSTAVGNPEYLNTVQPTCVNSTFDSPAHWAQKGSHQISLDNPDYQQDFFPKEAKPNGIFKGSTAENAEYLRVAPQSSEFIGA
T4 sequence (P00533 with tags, fused parts or gaps DEL746-750/T790M limits assumed): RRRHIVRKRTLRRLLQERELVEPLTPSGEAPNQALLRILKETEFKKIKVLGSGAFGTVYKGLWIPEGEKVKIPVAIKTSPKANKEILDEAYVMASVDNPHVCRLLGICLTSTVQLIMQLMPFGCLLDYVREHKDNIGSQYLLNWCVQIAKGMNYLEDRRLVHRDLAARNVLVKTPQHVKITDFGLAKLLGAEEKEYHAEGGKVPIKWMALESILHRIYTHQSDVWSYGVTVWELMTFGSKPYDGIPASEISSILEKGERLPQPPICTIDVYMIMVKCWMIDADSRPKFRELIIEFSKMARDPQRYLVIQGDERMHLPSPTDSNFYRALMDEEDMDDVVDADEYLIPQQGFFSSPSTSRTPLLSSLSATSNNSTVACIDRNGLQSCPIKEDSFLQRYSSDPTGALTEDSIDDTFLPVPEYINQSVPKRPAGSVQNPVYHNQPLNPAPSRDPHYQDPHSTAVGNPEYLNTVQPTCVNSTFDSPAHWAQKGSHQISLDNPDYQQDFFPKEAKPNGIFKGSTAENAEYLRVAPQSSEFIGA
T3 sequence (P00533 669-1210 L858R limits assumed): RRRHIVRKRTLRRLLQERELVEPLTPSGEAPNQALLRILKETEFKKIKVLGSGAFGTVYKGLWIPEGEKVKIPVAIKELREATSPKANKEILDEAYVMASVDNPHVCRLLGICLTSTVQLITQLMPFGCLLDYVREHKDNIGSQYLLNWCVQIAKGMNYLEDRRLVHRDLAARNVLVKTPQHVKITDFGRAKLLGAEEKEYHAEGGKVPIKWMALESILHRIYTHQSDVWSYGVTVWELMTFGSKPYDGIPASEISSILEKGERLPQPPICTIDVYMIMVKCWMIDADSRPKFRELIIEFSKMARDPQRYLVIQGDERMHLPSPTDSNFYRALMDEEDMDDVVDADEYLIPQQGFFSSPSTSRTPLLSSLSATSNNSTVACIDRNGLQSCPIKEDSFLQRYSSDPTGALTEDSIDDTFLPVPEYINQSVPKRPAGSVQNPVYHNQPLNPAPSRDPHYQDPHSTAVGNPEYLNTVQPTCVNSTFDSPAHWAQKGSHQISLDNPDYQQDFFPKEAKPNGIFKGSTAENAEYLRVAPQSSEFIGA

| IC50 [1] | IC50 [2] | IC50 [3] | IC50 [4] | IC50 [5] | IC50 [6] | Structure (SMILES) |
| --- | --- | --- | --- | --- | --- | --- |
| < 20 nM | < 20 nM | < 20 nM | < 20 nM | 20 to 200 nM | < 20 nM | C=CC(=O)Nc1cc(Nc2ncc(C)c(-n3cc(CN4CC(O)C4)c(C)n3)n2)c(OC)cc1N(C)CCN(C)C [Compound 31, N-(2-((2-(dimethylamino)ethyl)(methyl)amino)-5-(4-(4-((3-hydroxyazetidin-1-yl)methyl)-3-methyl-1H-pyrazol-1-yl)-5-methylpyrimidin-2-ylamino)-4-methoxyphenyl)acrylamide] |
| < 20 nM | < 20 nM | < 20 nM | < 20 nM | 201 to 1000 nM | < 20 nM | C=CC(=O)Nc1cc(Nc2nccc(-n3cc(CN4CCC4)c(-c4ccccc4)n3)n2)c(OC)cc1N1CCN(C(C)=O)CC1 [Compound 134, N-(2-(4-acetylpiperazin-1-yl)-5-(4-(4-(azetidin-1-ylmethyl)-3-phenyl-1H-pyrazol-1-yl)pyrimidin-2-ylamino)-4-methoxyphenyl)acrylamide] |
| 20 to 200 nM | 20 to 200 nM | 20 to 200 nM | < 20 nM | > 1000 nM | < 20 nM | C=CC(=O)Nc1cc(Nc2nccc(-n3cc(CN(C)C)c(-c4ccc(F)cc4)n3)n2)c(OC)cc1N1CCOCC1 [Compound 6, N-(5-(4-(4-((dimethylamino)methyl)-3-(4-fluorophenyl)-1H-pyrazol-1-yl)pyrimidin-2-ylamino)-4-methoxy-2-morpholinophenyl)acrylamide] |
| < 20 nM | < 20 nM | < 20 nM | < 20 nM | 201 to 1000 nM | < 20 nM | C=CC(=O)Nc1cc(Nc2ncc(Cl)c(-n3cc(CN(C)C)cn3)n2)c(OC)cc1N1CCOCC1 [Compound 77, N-(5-(5-chloro-4-(4-((dimethylamino)methyl)-1H-pyrazol-1-yl)pyrimidin-2-ylamino)-4-methoxy-2-morpholinophenyl)acrylamide] |
| > 1000 nM | > 1000 nM | > 1000 nM | > 1000 nM | > 1000 nM | > 1000 nM | COc1cc(N2CCOCC2)c([N+](=O)[O-])cc1Nc1nccc(-n2cc(CN(C)C)c(-c3ccccc3)n2)n1 [Compound 152, 4-(4-((dimethylamino)methyl)-3-phenyl-1H-pyrazol-1-yl)-N-(2-methoxy-4-morpholino-5-nitrophenyl)pyrimidin-2-amine, reference compound] |
| < 20 nM | 20 to 200 nM | 20 to 200 nM | < 20 nM | > 1000 nM | < 20 nM | C=CC(=O)Nc1cc(Nc2nccc(-n3cc(CN4C[C@H](O)[C@H](OC)C4)c(C)n3)n2)c(OC)cc1N1CCOCC1 [Compound 45, N-(5-(4-(4-(((3S,4R)-3-hydroxy-4-methoxypyrrolidin-1-yl)methyl)-3-methyl-1H-pyrazol-1-yl)pyrimidin-2-ylamino)-4-methoxy-2-morpholinophenyl)acrylamide] |
| < 20 nM | < 20 nM | < 20 nM | < 20 nM | 20 to 200 nM | < 20 nM | C=CC(=O)Nc1cc(Nc2ncc(C)c(-n3cc(CN(C)C)c(-c4ccccc4)n3)n2)c(OC)cc1N1CCOCC1 [Compound 120, N-(5-(4-(4-((dimethylamino)methyl)-3-phenyl-1H-pyrazol-1-yl)-5-methylpyrimidin-2-ylamino)-4-methoxy-2-morpholinophenyl)acrylamide] |
| 20 to 200 nM | 201 to 1000 nM | 20 to 200 nM | 20 to 200 nM | > 1000 nM | 20 to 200 nM | C=CC(=O)Nc1cc(Nc2nccc(-n3cc(CN4CCC4)c(-c4ccc(F)cc4)n3)n2)c(OC)cc1N1CCOCC1 [Compound 81, N-(5-(4-(4-(azetidin-1-ylmethyl)-3-(4-fluorophenyl)-1H-pyrazol-1-yl)pyrimidin-2-ylamino)-4-methoxy-2-morpholinophenyl)acrylamide] |
| < 20 nM | 20 to 200 nM | 20 to 200 nM | < 20 nM | > 1000 nM | < 20 nM | C=CC(=O)Nc1cc(Nc2ncc(F)c(-n3cc(C)c(CN4CCC4)c3)n2)c(OC)cc1N1CCOCC1 [Compound 60, N-(5-(4-(3-(azetidin-1-ylmethyl)-4-methyl-1H-pyrrol-1-yl)-5-fluoropyrimidin-2-ylamino)-4-methoxy-2-morpholinophenyl)acrylamide] |
| < 20 nM | < 20 nM | < 20 nM | 20 to 200 nM | > 1000 nM | < 20 nM | C=CC(=O)Nc1cc(Nc2nccc(-n3cc(CN4CCC4)cn3)n2)c(OC)cc1N(C)C [Compound 38, N-(5-(4-(4-(azetidin-1-ylmethyl)-1H-pyrazol-1-yl)pyrimidin-2-ylamino)-2-(dimethylamino)-4-methoxyphenyl)acrylamide] |
| < 20 nM | < 20 nM | < 20 nM | < 20 nM | 201 to 1000 nM | < 20 nM | C=CC(=O)Nc1cc(Nc2ncc(C)c(-n3cc(CN4CCC4)cn3)n2)c(OC)cc1N1CCCN(C)CC1 [Compound 41, N-(5-(4-(4-(azetidin-1-ylmethyl)-1H-pyrazol-1-yl)-5-methylpyrimidin-2-ylamino)-4-methoxy-2-(4-methyl-1,4-diazepan-1-yl)phenyl)acrylamide] |
| < 20 nM | < 20 nM | < 20 nM | < 20 nM | > 1000 nM | < 20 nM | C=CC(=O)Nc1cc(Nc2nccc(-n3cc(CN4CCC4)c(-c4ccccc4)n3)n2)c(OC)cc1N1CCC1 [Compound 87, N-(2-(azetidin-1-yl)-5-(4-(4-(azetidin-1-ylmethyl)-3-phenyl-1H-pyrazol-1-yl)pyrimidin-2-ylamino)-4-methoxyphenyl)acrylamide] |
| < 20 nM | < 20 nM | < 20 nM | < 20 nM | 201 to 1000 nM | < 20 nM | C=CC(=O)Nc1cc(Nc2nccc(-n3cc(CN(C)C)c(-c4ccoc4)n3)n2)c(OC)cc1N1CCOCC1 [Compound 127, N-(5-(4-(4-((dimethylamino)methyl)-3-(furan-3-yl)-1H-pyrazol-1-yl)pyrimidin-2-ylamino)-4-methoxy-2-morpholinophenyl)acrylamide] |
| < 20 nM | < 20 nM | < 20 nM | < 20 nM | 201 to 1000 nM | < 20 nM | C=CC(=O)Nc1cc(Nc2ncc(F)c(-n3cc(CN(C)C)c(-c4ccoc4)c3)n2)c(OC)cc1N1CCOCC1 [Compound 131, N-(5-(4-(3-((dimethylamino)methyl)-4-(furan-3-yl)-1H-pyrrol-1-yl)-5-fluoropyrimidin-2-ylamino)-4-methoxy-2-morpholinophenyl)acrylamide] |
| < 20 nM | < 20 nM | 20 to 200 nM | < 20 nM | 201 to 1000 nM | < 20 nM | C=CC(=O)Nc1cc(Nc2ncc(C)c(-n3cc(CN4C[C@H](O)[C@H](OC)C4)cn3)n2)c(OC)cc1N1CCOCC1 [Compound 21, N-(5-(4-(4-(((3S,4R)-3-hydroxy-4-methoxypyrrolidin-1-yl)methyl)-1H-pyrazol-1-yl)-5-methylpyrimidin-2-ylamino)-4-methoxy-2-morpholinophenyl)acrylamide] |
| < 20 nM | < 20 nM | 20 to 200 nM | < 20 nM | > 1000 nM | < 20 nM | C=CC(=O)Nc1cc(Nc2ncc(C)c(-n3cc(CN4CCC4)cn3)n2)c(OC)cc1C1=CCN(C)CC1 [Compound 64, N-(5-(4-(4-(azetidin-1-ylmethyl)-1H-pyrazol-1-yl)-5-methylpyrimidin-2-ylamino)-4-methoxy-2-(1-methyl-1,2,3,6-tetrahydropyridin-4-yl)phenyl)acrylamide] |
| < 20 nM | < 20 nM | < 20 nM | < 20 nM | > 1000 nM | < 20 nM | C=CC(=O)Nc1cc(Nc2nccc(-n3cc(CN4CCC4)c(C4CC4)n3)n2)c(OC)cc1N1CCC1 [Compound 139, N-(2-(azetidin-1-yl)-5-(4-(4-(azetidin-1-ylmethyl)-3-cyclopropyl-1H-pyrazol-1-yl)pyrimidin-2-ylamino)-4-methoxyphenyl)acrylamide] |
| < 20 nM | < 20 nM | < 20 nM | < 20 nM | 201 to 1000 nM | < 20 nM | C=CC(=O)Nc1cc(Nc2nccc(-n3cc(CN(C)C)c(C(C)C)n3)n2)c(OC)cc1N(C)C1COC1 [Compound 114, N-(5-(4-(4-((dimethylamino)methyl)-3-isopropyl-1H-pyrazol-1-yl)pyrimidin-2-ylamino)-4-methoxy-2-(methyl(oxetan-3-yl)amino)phenyl)acrylamide] |
| 201 to 1000 nM | – | 201 to 1000 nM | 20 to 200 nM | > 1000 nM | 201 to 1000 nM | C=CC(=O)Nc1cc(Nc2nccc(-n3cc(CN4CC[C@H](N(C)C)C4)cn3)n2)c(OC)cc1N1CCOCC1 [Compound 35, (S)—N-(5-(4-(4-((3-(dimethylamino)pyrrolidin-1-yl)methyl)-1H-pyrazol-1-yl)pyrimidin-2-ylamino)-4-methoxy-2-morpholinophenyl)acrylamide] |

Source: USRE50528E1, “Compounds and compositions for modulating EGFR mutant kinase activities” (Yuhan Corporation, priority 2014, dated 2025)
